Results as given in ChEMBL document CHEMBL1201862, “PubChem BioAssay data set” (2004).
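Cells were grown in 96-well plates and exposed to each compound for 48 hours at five concentrations; endpoints were interpolated linearly between bracketing concentrations, or set to the highest concentration if not reached. GI50 is the concentration that inhibits growth by half.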 Active and inactive are the calls of the source. Cut-off read from the data, not from the text of the source: active = GI50 up to about 1.1 µM and inactive = higher.

Legend:
Experiment in all cases: DTP human tumour cell line panel, 48 h
786-0 = tested on: 786-0
A498 = tested on: A498
CAKI-1 = tested on: CAKI-1
CCRF-CEM = tested on: CCRF-CEM
HCC 2998 = tested on: HCC 2998
HCT-15 = tested on: HCT-15
HT-29 = tested on: HT-29
MDA-N = tested on: MDA-N
NCI-H226 = tested on: NCI-H226
OVCAR-3 = tested on: OVCAR-3
OVCAR-8 = tested on: OVCAR-8
RXF 393 = tested on: RXF 393
SF-539 = tested on: SF-539
SK-MEL-5 = tested on: SK-MEL-5
SN12C = tested on: SN12C
SNB-75 = tested on: SNB-75
SR = tested on: SR
U-251 = tested on: U-251
UO-31 = tested on: UO-31

SMILES	GI50 (786-0)	GI50 (A498)	GI50 (CAKI-1)	GI50 (CCRF-CEM)	GI50 (HCC 2998)	GI50 (HCT-15)	GI50 (HT-29)	GI50 (MDA-N)	GI50 (NCI-H226)	GI50 (OVCAR-3)	GI50 (OVCAR-8)	GI50 (RXF 393)	GI50 (SF-539)	GI50 (SK-MEL-5)	GI50 (SN12C)	GI50 (SNB-75)	GI50 (SR)	GI50 (U-251)	GI50 (UO-31)
CC(=N\N=C\c1ccccn1)/C(C)=N/N=C(C)/C(C)=N/N=C(C)/C(C)=N/N=C/c1ccccn1	> 100 µM (inactive)	> 100 µM (inactive)	> 100 µM (inactive)	3.7 µM (inactive)	> 100 µM (inactive)	> 100 µM	> 100 µM (inactive)	> 100 µM (inactive)	> 100 µM (inactive)	> 100 µM (inactive)	> 100 µM (inactive)	> 100 µM (inactive)	> 100 µM (inactive)	> 100 µM (inactive)	> 100 µM (inactive)	> 100 µM (inactive)	> 100 µM (inactive)	> 100 µM (inactive)	> 100 µM (inactive)
CC1(C)C(=O)/C(=C/c2ccccc2)C(C)(C)C1(C)C	> 81.8 µM (inactive)	36.1 µM (inactive)	49.1 µM (inactive)	28.4 µM (inactive)	> 91.4 µM (inactive)	54.1 µM	40.1 µM (inactive)	39.1 µM (inactive)	> 100 µM (inactive)	> 39.3 µM (inactive)	> 100 µM (inactive)	> 100 µM (inactive)	> 100 µM (inactive)	55 µM (inactive)	50.8 µM (inactive)	46.8 µM (inactive)	37 µM (inactive)	55.5 µM (inactive)	52.6 µM (inactive)
O=C(NCCCCCN1CCC2(CCCCC2)CC1)C(C1CCCCC1)C1CCCCC1	5.08 µM (inactive)	4.26 µM (inactive)	4.1 µM (inactive)	2.99 µM (inactive)	1.3 µM (inactive)	3.08 µM	1.97 µM (inactive)	1.84 µM (inactive)	3.67 µM (inactive)	4.17 µM (inactive)	2.72 µM (inactive)	4.24 µM (inactive)	1.91 µM (inactive)	1.61 µM (inactive)	3.55 µM (inactive)	4.12 µM (inactive)	1.57 µM (inactive)	4.34 µM (inactive)	3.61 µM (inactive)
COc1ccc(C2OC(=O)c3ccc4ccccc4c32)c(C)c1 (centres undefined)	12.7 µM (inactive)	7.41 µM (inactive)	13.3 µM (inactive)	22.4 µM (inactive)	3.85 µM (inactive)	4.1 µM	3.78 µM (inactive)	2 µM (inactive)	13.9 µM (inactive)	6.44 µM (inactive)	14.2 µM (inactive)	5.33 µM (inactive)	12.2 µM (inactive)	3.54 µM (inactive)	10.1 µM (inactive)	6.97 µM (inactive)	3.86 µM (inactive)	4.86 µM (inactive)	8.97 µM (inactive)
COc1ccc(CNc2nc3ccccc3nc2C(=O)O)cc1	57.8 µM (inactive)	> 100 µM (inactive)	> 100 µM (inactive)	83.4 µM (inactive)	> 100 µM (inactive)	23.1 µM	> 100 µM (inactive)	> 100 µM (inactive)	> 100 µM (inactive)	> 100 µM (inactive)	> 100 µM (inactive)	> 100 µM (inactive)	> 100 µM (inactive)	52.6 µM (inactive)	> 100 µM (inactive)	93.8 µM (inactive)	41.1 µM (inactive)	58.6 µM (inactive)	39 µM (inactive)
CN(C)/C=N/S(=O)(=O)c1nn2c(C=O)c(-c3ccc(-c4ccc([N+](=O)[O-])cc4)o3)nc2s1	1.07 µM (active)	15.3 µM (inactive)	0.308 µM (active)	0.426 µM (active)	5.33 µM (inactive)	2.21 µM	0.611 µM (active)	1.1 µM (active)	20.5 µM (inactive)	2.07 µM (inactive)	8.04 µM (inactive)	1.91 µM (inactive)	2.15 µM (inactive)	4.76 µM (inactive)	1.71 µM (inactive)	9.18 µM (inactive)	0.883 µM (active)	2.25 µM (inactive)	1.91 µM (inactive)
